The text below walks through data of patent US5573908A, “Adrenergic receptor as a proto-oncogene” (Duke University, priority 1993, dated 1996).

One assay has as its target T1, α1B ADR mutant (Mesocricetus auratus, UniProt P18841, A293L/K290H/R288K).
T1 construct: expressed in transfected cells; host or cells: RAT-1 fibroblasts (vector pZIP-NeoSV(X)1), focus-derived, G418-selected lines
T1 sequence (P18841 1-515 R288K/K290H/A293L): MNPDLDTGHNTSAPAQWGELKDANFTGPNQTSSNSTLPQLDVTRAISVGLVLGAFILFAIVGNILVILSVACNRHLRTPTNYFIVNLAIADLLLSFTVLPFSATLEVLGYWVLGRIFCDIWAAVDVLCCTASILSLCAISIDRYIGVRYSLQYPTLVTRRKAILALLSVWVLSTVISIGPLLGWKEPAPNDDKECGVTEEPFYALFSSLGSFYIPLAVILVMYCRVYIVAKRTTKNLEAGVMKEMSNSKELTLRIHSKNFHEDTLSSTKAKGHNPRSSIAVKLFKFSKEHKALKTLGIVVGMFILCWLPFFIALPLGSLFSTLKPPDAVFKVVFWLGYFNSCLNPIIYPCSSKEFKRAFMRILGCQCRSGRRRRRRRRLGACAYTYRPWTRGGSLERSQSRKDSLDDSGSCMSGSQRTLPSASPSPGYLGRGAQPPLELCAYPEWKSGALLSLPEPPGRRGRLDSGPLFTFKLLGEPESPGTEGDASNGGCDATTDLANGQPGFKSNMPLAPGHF
As to the kind of experiment: Ligand binding on membranes of RAT-1 fibroblast cell lines expressing the α1B ADR mutant. On the set-up: species or system hamster. Conditions: two clones. Here is the method:
(§1) In Table 3, RAT-1 fibroblast cell lines transfected with expression vector alone or derived from transformed foci (α1B ADR or α1B ADR mutant) were selected with G418 (300 μg/ml). Ligand binding was performed on membranes prepared from two clones of each in accordance with known techniques (S. Cotecchia et al., Life Sci. 37, 2389 (1986)). For saturation binding analysis, [^125 ] HEAT concentrations ranged from 10 to 500 pM, nonspecific binding was determined using 1 μM prazosin; in competition experiments, the radioligand concentration was 100 pM. Ligand binding parameters were determined using computerized iterative nonlinear regression analysis (P. Munson, Methods in Enzymol. 92, 5432 (1983)). For assessment of receptor coupling to PI hydrolysis, cells were plated in 30 mm dishes, and labeled overnight with 3 μCi/ml of myo-[2-^3 II(N)]-inositol (1Ci=37 GBq; NEN Research Products) in DMEM containing 3.3% FBS in accordance with known techniques (S. Cotecchia et al., Proc. Natl. Acad. Sci. USA 87, 2896 (1990)). After 40 minute stimulation of cells with 10 μM norepinephrine (NE), inositol phosphates were extracted, and separated on AG 1-X8 anion exchange columns (BioRad Labs) in accordance with known techniques (S. Cotecchia et al., Proc. Natl. Acad. Sci. USA 87, 2896 (1990)). Total inositol phosphates were eluted with 1M ammonium formate/0.1M formic acid. Rmax indicates the percentage increase of total labeled inositol phosphates over basal levels following NE stimulation.

Another assay has as its target T2, α1B ADR (Mesocricetus auratus, UniProt P18841).
T2 construct: expressed in transfected cells; host or cells: RAT-1 fibroblasts (vector pZIP-NeoSV(X)1), focus-derived, G418-selected lines
T2 sequence (P18841 1-515): T1 sequence (P18841 1-515 R288K/K290H/A293L) with K288R, H290K, L293A
As to the kind of experiment: Ligand binding on membranes of RAT-1 fibroblast cell lines expressing the α1B ADR. Also noted: species or system hamster. The settings on record: two clones. Here is the method:
as §1

The subject of assay [1] is RAT-1 fibroblasts transfected with α1B -ADR c-DNA. The assay is described as follows: Focus formation in RAT-1 fibroblasts transfected with α1B-ADR c-DNA. The class given is cell-based. The settings on record: focus-derived RAT-1 cell lines; data not shown. Here is the method:
Transfection was carried out as follows: RAT-1 fibroblasts were seeded at a density of 2×10^5 cells in Dulbecco's modified Eagle's medium (DMEM) (Gibco) containing 5% fetal bovine serum (FBS) in 100 mm dishes. […] After 16 hours, the DNA precipitate was removed, the cells washed and grown for 24 hours in complete medium. Cells were split 1:5, allowed to attach overnight and then cultured in DMEM with 5% FBS alone, supplemented with 10 μM norepinephrine (NE) or G418 (300 μg/ml). Dishes were supplemented with NE daily, and fed every 3 days with fresh medium.

In assay [2] the test system is RAT-1 fibroblast cell line derived from a single transformed focus expressing the α1B -ADR. As to the kind of experiment: Morphology of focus-derived RAT-1 fibroblast cell line expressing the α1B-ADR. The class given is cell-based. The settings on record: 10 μM NE and 1 μM prazosin, 36 hours.
Setting [3] is: saturation binding 10 to 500 pM, nonspecific binding with 1 μM prazosin, read-out: [125I] HEAT Kd.
The mark [4] stands for this setting: serum free medium, data not shown.

Molecules are shown by their SMILES. Residue numbers refer to the chain shown, from its start. pKd: −log10 of the molar value. Values joined by “and” are separate entries in the source; they are usually repeats but may differ in a detail not shown here. Equal entries are not always repeated. “Also recorded” adds a separate entry of the source. Where two headings read alike, the source gives them in different places.

A word on the pKd: it is the negative decadic logarithm of the Kd, by convention in mol/L. Consider `O=C1c2ccccc2CCC1CNCCc1ccc(O)c([125I])c1` (stereo not shown) [[^125 I] HEAT, 2{b-(4-hydroxy-3-[^125 I]iodophenyl)ethylaminomethyl}-tetralone], for which the negative logarithm of the Kd (pKd) on α1B ADR mutant (setting [3]) is 10.42 and 10.33; at α1B ADR (setting [3]) it was 10.36 and 10.42. Besides, the “[125I] HEAT Bmax” value on α1B ADR mutant (saturation binding) was 2.2 pmol/mg and 2.6 pmol/mg; on α1B ADR (saturation binding), 5.1 pmol/mg and 2.7 pmol/mg.

Regarding `c1ccc2c(c1)OCC(C1=NCCN1)O2` (stereo not shown) [idazoxan], the “blockade of NE-induced increase in DNA synthetic activity” value (“blockade of NE-induced increase” below) in the assay with α1B -ADR (setting [4]) was “not”.

On to `COc1cc2nc(N3CCN(C(=O)c4ccco4)CC3)nc(N)c2cc1OC` [prazosin], for which the “inhibition of agonist-dependent focus formation by concurrent antagonist” value in assay [1] is on record as “could be inhibited”. Also, the “effect of concurrent antagonist on agonist-induced transformation (morphology)” value in assay [2] was “blocked agonist-induced transformation; also recorded: reverted the cells to the untransformed phenotype”. Besides, the “blockade of NE-induced increase” value in the assay on α1B -ADR is on record as “could be blocked”.

As for `CC(C)NCC(O)COc1cccc2ccccc12` (stereo not shown) [propranolol], in the assay with α1B -ADR (setting [4]), the “blockade of NE-induced increase” value is listed as “not”.

In the case of `COC(=O)[C@@H]1[C@H]2C[C@H]3c4[nH]c5ccccc5c4CCN3C[C@@H]2CC[C@@H]1O` [yohimbine], in the assay on α1B -ADR, the “blockade of NE-induced increase” value is “not”.
